Row | logP | SMILES
1 | 2.4 | COc1ccc(C(=O)N2CCCCC2)cc1
2 | 2.8 | COc1ccc(C(=O)N(C(C)C)C(C)C)cc1
3 | 1.14 | CCNC(=O)c1ccc(OC)cc1
4 | 2.4 | CCN(CC)C(=O)Cc1ccccc1
5 | 1.72 | Cc1ccc(C(=O)N(C)C)cc1
6 | 3.2 | O=C(CC1CCCCC1)N1CCCCC1
7 | 2.6 | Cc1cccc(C(=O)N2CCCCC2)c1
8 | 2.44 | O=C(Cc1ccccc1)N1CCCCC1
9 | 3.1 | CC(C)N(C(=O)Cc1ccccc1)C(C)C
10 | 3 | CCOc1ccccc1C(=O)N(C(C)C)C(C)C
11 | 2.28 | CCNC(=O)CC1CCCCC1
12 | 2.5 | CCOc1ccccc1C(=O)N(CC)CC
13 | 2.2 | O=C(c1ccccc1)N1CCCCC1
14 | 3.12 | CCN(CC)C(=O)CC1CCCCC1
15 | 2.5 | CCN(CC)C(=O)c1ccc(OC)cc1
16 | 2.5 | CC(C)N(C(=O)c1ccccc1)C(C)C
17 | 1 | CCNC(=O)Cc1ccccc1
18 | 1.32 | CCNC(=O)c1cccc(C)c1

Row | logP | SMILES
19 | 2.8 | Cc1ccc(C(=O)N2CCCCC2)cc1
20 | 1.48 | CN(C)C(=O)Cc1ccccc1
21 | 1.54 | CN(C)C(=O)c1ccccc1Cl
22 | 2.5 | Cc1ccc(C(=O)N(C(C)C)C(C)C)cc1
23 | 1.6 | Cc1cccc(C(=O)N(C)C)c1
24 | 1.8 | CCN(CC)C(=O)c1ccccc1
25 | 2.34 | CCN(CC)C(=O)c1cccc(C)c1
26 | 0.95 | CCNC(=O)c1ccccc1Cl
27 | 2.19 | CN(C)C(=O)CC1CCCCC1
28 | 3 | Cc1cccc(C(=O)N(C(C)C)C(C)C)c1
29 | 2.38 | CCN(CC)C(=O)c1ccc(C)cc1
30 | 2.6 | CCOc1ccccc1C(=O)N1CCCCC1
31 | 2.1 | CCN(CC)C(=O)c1ccccc1Cl
32 | 3 | CC(C)N(C(=O)c1ccccc1Cl)C(C)C
33 | 1.38 | CCNC(=O)c1ccc(C)cc1
34 | 2.8 | O=C(c1ccccc1Cl)N1CCCCC1
35 | 1.2 | CN(C)C(=O)c1ccccc1
36 | 2.4 | CCNC(=O)c1ccccc1OCC
